For 15 molecules, IC50, MIC and logP results are on record in ChEMBL document CHEMBL1130897, “Novel inhibitors of bacterial two-component systems with gram positive antibacterial activity: pharmacophore identification based on the screening hit closantel” (Bioorg Med Chem Lett, 1998).

The structures appear in SMILES notation. Values after ≈ are worked out from the molar mass of the structure shown. A value given as a limit tells only on which side of the number the result lay.

Data set [1] addresses T1, KinA/Spo0F (sporulation kinase A/sporulation initiation phosphotransferase F) (Bacillus subtilis (strain 168), UniProt P06628+P16497).
T1 sequence (P06628 whole entry): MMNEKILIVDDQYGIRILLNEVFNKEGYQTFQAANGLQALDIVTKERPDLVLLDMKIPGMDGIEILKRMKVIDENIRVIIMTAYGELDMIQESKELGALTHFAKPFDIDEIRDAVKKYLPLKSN
T1 sequence (P16497 whole entry): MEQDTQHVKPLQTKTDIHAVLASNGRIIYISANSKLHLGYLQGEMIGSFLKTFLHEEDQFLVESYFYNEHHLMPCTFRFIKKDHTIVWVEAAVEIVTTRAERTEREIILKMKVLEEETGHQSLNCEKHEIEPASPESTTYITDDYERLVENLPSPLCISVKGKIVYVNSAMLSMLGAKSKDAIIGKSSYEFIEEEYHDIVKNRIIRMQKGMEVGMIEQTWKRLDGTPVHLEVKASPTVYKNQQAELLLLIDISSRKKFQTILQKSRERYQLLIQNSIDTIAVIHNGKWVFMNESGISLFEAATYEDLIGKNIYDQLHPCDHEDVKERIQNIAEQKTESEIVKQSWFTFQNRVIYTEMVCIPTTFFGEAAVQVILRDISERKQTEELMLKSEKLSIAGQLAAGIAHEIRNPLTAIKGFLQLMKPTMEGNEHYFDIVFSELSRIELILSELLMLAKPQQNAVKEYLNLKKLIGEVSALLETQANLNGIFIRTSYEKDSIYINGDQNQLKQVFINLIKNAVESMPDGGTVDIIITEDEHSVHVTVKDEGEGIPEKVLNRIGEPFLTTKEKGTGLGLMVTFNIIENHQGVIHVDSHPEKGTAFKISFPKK
The data set can be described thus: Inhibition of histidine protein kinase (KinA) phosphorylation in the presence of response regulator (Spo0F). The data set is classed as protein assay.

The next data set deals with Enterococcus faecium. The data set can be described thus: Compound was tested for its antibacterial activity against Enterococcus faecium (Vancomycin resistant, VRE) OC 3312. The data set is classed as functional.
For another data set, the system named is Enterococcus faecalis. Kind of data set: Compound was tested for its antibacterial activity against Enterococcus faecalis OC 3041. The data set is classed as functional.
The subject of data set [2] is Staphylococcus aureus. Kind of data set: Compound was tested for its antibacterial activity against MRSA (methicillin resistant) OC 2089. The data set is classed as functional.
In data set [3] the test system is Staphylococcus aureus. The data set can be described thus: Compound was tested for its antibacterial activity against Staph aureus ATCC 29213. The data set is classed as functional.
A short description of data set [4]: Partition coefficient (logP). The data set is classed as physicochemical. The conditions noted are these: octanol/water.

For the molecule `O=C(Nc1ccc(Cl)c(Cl)c1)c1cc(Cl)cc(Cl)c1`, the IC50 in data set [1] was above 500 µM.

With `Oc1c(Cl)cc(Cl)cc1/C=C/c1ccc(Cl)c(Cl)c1`, the IC50 in data set [1] was above 500 µM.

For the molecule `O=C(Nc1ccccc1)c1cc(Cl)cc(Cl)c1O`, in data set [1], the IC50 was found to be 385 µM.

On to `O=C(NCc1ccc(Cl)c(Cl)c1)c1cc(Cl)cc(Cl)c1O`, for which, in data set [1], the IC50 is above 500 µM.

For `Cc1cc(NC(=O)c2cc(Cl)cc(Cl)c2O)c(Cl)cc1C(C#N)c1ccc(Cl)cc1` (stereo unspecified), in data set [1], the IC50 worked out at 4.8 µM.

Take `O=C(Nc1ccc(Cl)c(Cl)c1)c1cc(Cl)c(O)c(Cl)c1`: the half-inhibitory concentration (IC50) in data set [1] was 98 µM. In addition, the MIC worked out at 64 µg/mL (≈ 182 µM) in the data set on Enterococcus faecium, 64 µg/mL (≈ 182 µM) against Enterococcus faecalis, 16 µg/mL (≈ 45.6 µM) against Staphylococcus aureus [2] and 16 µg/mL (≈ 45.6 µM) with Staphylococcus aureus [3].

For `Cc1cc(N(C)C(=O)c2cc(I)cc(I)c2O)c(Cl)cc1C(C#N)c1ccc(Cl)cc1` (stereo unspecified), in data set [1], the IC50 is above 500 µM.

As to `O=C(Nc1ccc(Cl)c(Cl)c1)c1cc(I)cc(I)c1O`, in data set [1], the IC50 came to 22 µM.

With `Cc1cc(NC(=O)c2cc(I)c(O)c(I)c2)c(Cl)cc1C(C#N)c1ccc(Cl)cc1` (stereo unspecified), the IC50 in data set [1] is 9 µM.

In the case of `O=C(Nc1ccc(Cl)c(Cl)c1)Nc1cc(Cl)cc(Cl)c1O`, the IC50 in data set [1] was 365 µM.

`O=C(Nc1cc(Cl)cc(Cl)c1O)c1ccc(Cl)c(Cl)c1`: the IC50 in data set [1] was above 500 µM. Moreover, the MIC turned out to be 1 µg/mL (≈ 2.85 µM) against Enterococcus faecium, 2 µg/mL (≈ 5.7 µM) in the data set with Enterococcus faecalis, 0.25 µg/mL (≈ 0.712 µM) against Staphylococcus aureus [2] and 0.5 µg/mL (≈ 1.42 µM) against Staphylococcus aureus [3].

For the molecule `COc1c(I)cc(I)cc1C(=O)Nc1cc(C)c(C(C#N)c2ccc(Cl)cc2)cc1Cl` (stereo unspecified), in data set [1], the IC50 is above 500 µM.

Take `O=C(Nc1ccc(Cl)c(Cl)c1)c1cc(Cl)cc(Cl)c1O` [3,3',4',5-TETRACHLOROSALICYLANILIDE]: in data set [1], the IC50 came to 45 µM. The logP in data set [4] was found to be 4.8. In addition, the MIC was 0.5 µg/mL (≈ 1.42 µM) in the data set on Enterococcus faecium, 0.5 µg/mL (≈ 1.42 µM) with Enterococcus faecalis, 0.25 µg/mL (≈ 0.712 µM) against Staphylococcus aureus [2] and 0.5 µg/mL (≈ 1.42 µM) in the data set with Staphylococcus aureus [3].

As for `Cc1onc(-c2ccccc2)c1C(=O)N[C@@H]1C(=O)N2[C@@H]1SC(C)(C)[C@@H]2C(=O)O` [OXACILLIN], the MIC against Enterococcus faecium was above 64 µg/mL; in the data set with Enterococcus faecalis it was 16 µg/mL (≈ 39.9 µM); in the data set with Staphylococcus aureus [2], above 64 µg/mL; against Staphylococcus aureus [3], 0.25 µg/mL (≈ 0.623 µM).

In the data set on Enterococcus faecium, `CN[C@H](CC(C)C)C(=O)N[C@H]1C(=O)N[C@@H](CC(N)=O)C(=O)N[C@H]2C(=O)N[C@H]3C(=O)N[C@H](C(=O)N[C@H](C(=O)O)c4cc(O)cc(O)c4-c4cc3ccc4O)[C@H](O)c3ccc(c(Cl)c3)Oc3cc2cc(c3O[C@@H]2O[C@H](CO)[C@@H](O)[C@H](O)[C@H]2O[C@H]2C[C@](C)(N)[C@H](O)[C@H](C)O2)Oc2ccc(cc2Cl)[C@H]1O` [VANCOMYCIN] displayed an MIC above 128 µg/mL.
